Results as given in US9914730B2, “Azaquinazoline inhibitors of Atypical protein Kinase C” (Ignyta, Inc., priority 2012, dated 2018).
Counter-ions that a name gives are not always drawn.

Target: T1, full-length human PKCι (Homo sapiens, UniProt P41743)
T1 construct: Recombinant, full-length human PKCι expressed in Sf21 insect cells is also commercially available; purchased; host or cells: Sf21 insect cells
T1 sequence (P41743 1-596): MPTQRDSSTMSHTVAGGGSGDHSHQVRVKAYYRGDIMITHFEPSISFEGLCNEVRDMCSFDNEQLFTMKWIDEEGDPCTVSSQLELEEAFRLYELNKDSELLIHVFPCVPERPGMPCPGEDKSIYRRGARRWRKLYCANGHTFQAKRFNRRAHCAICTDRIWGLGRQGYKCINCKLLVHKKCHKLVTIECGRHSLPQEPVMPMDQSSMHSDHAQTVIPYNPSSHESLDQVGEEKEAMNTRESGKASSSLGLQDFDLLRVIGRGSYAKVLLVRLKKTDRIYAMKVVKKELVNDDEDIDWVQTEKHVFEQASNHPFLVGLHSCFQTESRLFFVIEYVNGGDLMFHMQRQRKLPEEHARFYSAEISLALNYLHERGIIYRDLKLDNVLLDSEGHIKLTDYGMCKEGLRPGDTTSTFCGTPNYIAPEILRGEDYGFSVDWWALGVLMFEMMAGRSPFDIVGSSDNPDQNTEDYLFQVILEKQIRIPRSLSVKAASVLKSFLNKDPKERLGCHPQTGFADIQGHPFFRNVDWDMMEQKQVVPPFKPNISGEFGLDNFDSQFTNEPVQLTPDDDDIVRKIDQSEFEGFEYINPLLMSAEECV
Experiment: PKCι IC50 IMAP assay, full-length PKCι at 150 μM ATP
Assay type: biochemical
Details: read-out: IC50 in IMAP assay against full length PKCi at 150 μM ATP
In short: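 Full-length hPKCι (Sf21) ~15 pM; 5FAM-peptide 100 nM; ATP 150 μM (5× KM^APP); tris pH7.5/MgCl2/EGTA/DTT/Triton, 4% DMSO; 60 min RT; IMAP stop, 2 h; FP 485/530 nm; IC50 from % inhibition curves.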

| Structure (SMILES) | IC50 |
| --- | --- |
| COc1cncc2nc(-c3ccnc(Nc4ccccc4)c3)nc(N3CCC(O)C(CO)C3)c12 (stereo not drawn) [Example 443, 3-Hydroxymethyl-1-[5-methoxy-2-(2-phenylamino-pyridin-4-yl)-pyrido[3,4-d]pyrimidin-4-yl]-piperidin-4-ol] | 1000 to 10000 nM |
| FC(F)(F)C(Nc1cc(-c2nc(N3CCNCC3)c3c(C4CC4)cncc3n2)ccn1)c1ccccc1 (stereo not drawn) [Example 706, [4-(5-Cyclopropyl-4-piperazin-1-yl-pyrido[3,4-d]pyrimidin-2-yl)-pyridin-2-yl]-(2,2,2-trifluoro-1-phenyl-ethyl)-amine] | 100 to 1000 nM |
| CN(c1nc(-c2ccnc(Nc3c(F)cccc3F)c2)nc2cncc(C3CC3)c12)C1CCN(C2CCC2)CC1 [Example 2110, (1-Cyclobutyl-piperidin-4-yl)-{5-cyclopropyl-2-[2-(2,6-difluoro-phenylamino)-pyridin-4-yl]-pyrido[3,4-d]pyrimidin-4-yl}-methyl-amine] | 100 to 1000 nM |
| CC1(C)CN(c2nc(-c3ccnc4[nH]c5ccccc5c34)nc3cncc(C4CC4)c23)CCN1 [Example 1255, 4-[5-Cyclopropyl-4-(3,3-dimethyl-piperazin-1-yl)-pyrido[3,4-d]pyrimidin-2-yl]-9H-pyrido[2,3-b]indole trifluoroacetic acid salt] | < 100 nM |
| N#Cc1ccc(Nc2cc(-c3nc(N4CCNCC4)c4c(C5CC5)cncc4n3)ccn2)cc1 [Example 645, 4-[4-(5 Cyclopropyl-4-piperazin-1-yl-pyrido[3,4-d]pyrimidin-2-yl)-pyridin-2-ylamino]-benzonitrile] | < 100 nM |
| CS(=O)(=O)Nc1cccc(-c2nccc3c(NC[C@@H](N)Cc4ccccc4)nc(-c4ccncc4)nc23)c1 [Example 88, N-{3-[4-((S)-2-Amino-3-phenyl-propylamino)-2-pyridin-4-yl-pyrido[3,4-d]pyrimidin-8-yl]-phenyl}-methanesulfonamide] | 100 to 1000 nM |
| COc1cncc2nc(-c3ccnc(NC(=O)Cc4cccc(C#N)c4)c3)nc(N3CCNCC3)c12 [Example 356, 2-(3-Cyano-phenyl)-N-[4-(5-methoxy-4-piperazin-1-yl-pyrido[3,4-d]pyrimidin-2-yl)-pyridin-2-yl]-acetamide] | < 100 nM |
| COc1cncc2nc(-c3ccncc3)nc(N3C[C@@H](C)N[C@@H](C)C3)c12 [Example 51, 1-[5-methoxy-2-(pyridin-4-yl)-pyrido[3,4-d]-pyrimidin-4-yl]-3,5-cis-dimethylpiperazine] | 1000 to 10000 nM |
| COC(=O)[C@@H]1C[C@H](NC(=O)[C@@H]2C[C@H](Nc3nc(-c4ccncc4)nc4cnccc34)CN2)CN1 [Example 40, methyl (2S,4S)-4-[(2S,4S)-4-{[2-(pyridin-4-yl)-pyrido[3,4-d]-pyrimidin-4-yl]-amino}pyrrolidine-2-amido]pyrrolidine-2-carboxylate] | 1000 to 10000 nM |
| Cn1nccc1-c1nccc2c(NC[C@@H](N)Cc3ccccc3)nc(-c3ccncc3)nc12 [Example 104, N-[(2S)-2-amino-3-phenylpropyl]-8-(1-methyl-1H-pyrazol-5-yl)-2-(pyridin-4-yl)-pyrido[3,4-d]-pyrimidin-4-amine] | 1000 to 10000 nM |
| COc1ccc(Nc2cc(-c3nc(N4CCNCC4)c4c(C5CC5)cncc4n3)ccn2)cc1OC [Example 610, [4-(5-Cyclopropyl-4-piperazin-1-yl-pyrido[3,4-d]pyrimidin-2-yl)-pyridin-2-yl]-(3,4-dimethoxy-phenyl)-amine] | < 100 nM |
| COc1cccc(CC(=O)Nc2cc(-c3nc(N4CCNCC4)c4c(OC)cncc4n3)ccn2)c1 [Example 372, 2-(3-Methoxy-phenyl)-N-[4-(5-methoxy-4-piperazin-1-yl-pyrido[3,4-d]pyrimidin-2-yl)-pyridin-2-yl]-acetamide] | < 100 nM |
| FC(F)(F)c1ccnc(Nc2cc(-c3nc(N4CCNCC4)c4c(C5CC5)cncc4n3)ccn2)c1 [Example 269, [4-(5-Cyclopropyl-4-piperazin-1-yl-pyrido[3,4-d]pyrimidin-2-yl)-pyridin-2-yl]-(4-trifluoromethyl-pyridin-2-yl)-amine] | < 100 nM |
| c1ccc(Nc2cc(-c3nc(N4CCNCC4)c4ccncc4n3)ccn2)cc1 [Example 494, Phenyl-[4-(4-piperazin-1-yl-pyrido[3,4-d]pyrimidin-2-yl)-pyridin-2-yl]-amine] | 100 to 1000 nM |
| CN1CCN(c2cccc(Nc3cc(-c4nc(N5CC(O)C5)c5c(C6CC6)cncc5n4)ccn3)c2)CC1 [Example 777, 1-(5-Cyclopropyl-2-{2-[3-(4-methyl-piperazin-1-yl)-phenylamino]-pyridin-4-yl}-pyrido[3,4-d]pyrimidin-4-yl)-azetidin-3-ol] | 100 to 1000 nM |
| O=C1OCC2CN(c3nc(-c4ccnc(Nc5ccccc5)c4)nc4cncc(C5CC5)c34)CCN12 (stereo not drawn) [Example 525, 7-[5-Cyclopropyl-2-(2-phenylamino-pyridin-4-yl)-pyrido[3,4-d]pyrimidin-4-yl]-hexahydro-oxazolo[3,4-a]pyrazin-3-one] | 100 to 1000 nM |
| Fc1ccc(Nc2cc(-c3nc(N4CCNCC4)c4c(C5CC5)cncc4n3)ccn2)c(F)n1 [Example 671, [4-(5-Cyclopropyl-4-piperazin-1-yl-pyrido[3,4-d]pyrimidin-2-yl)-pyridin-2-yl]-(2,6-difluoro-pyridin-3-yl)-amine] | < 100 nM |
| Nc1ccc(CC(=O)Nc2cc(-c3nc(N[C@@H]4CCNC4)c4ccncc4n3)ccn2)cc1 [Example 314, 2-(4-Amino-phenyl)-N-{4-[4-((R)-pyrrolidin-3-ylamino)-pyrido[3,4-d]pyrimidin-2-yl]-pyridin-2-yl}-acetamide] | < 100 nM |
| Fc1ccc(Nc2cc(-c3nc(N4CCNCC4)c4c(C5CC5)cncc4n3)ccn2)cc1F [Example 599, [4-(5-Cyclopropyl-4-piperazin-1-yl-pyrido[3,4-d]pyrimidin-2-yl)-pyridin-2-yl]-(3,4-difluoro-phenyl)-amine] | < 100 nM |
| Fc1cccc(F)c1Nc1cc(-c2nc(N[C@@H]3CCNC3)c3c(C4CC4)cncc3n2)ccn1 [Example 2035, {5-Cyclopropyl-2-[2-(2,6-difluoro-phenylamino)-pyridin-4-yl]-pyrido[3,4-d]pyrimidin-4-yl}-(R)-pyrrolidin-3-yl-amine] | < 100 nM |
| c1ccc(C[C@H]2CN(c3nc(N4CCOCC4)nc4cnccc34)CCN2)cc1 [Example 1000, 4-((S)-3-Benzyl-piperazin-1-yl)-2-morpholin-4-yl-pyrido[3,4-d]pyrimidine] | 1000 to 10000 nM |
| COc1cncc2nc(-c3ccnc(Nc4ccc(N5CCN(C)CC5)nc4)c3)nc(N[C@@H]3CCNC3)c12 [Example 331, (5-Methoxy-2-{2-[6-(4-methyl-piperazin-1-yl)-pyridin-3-ylamino]-pyridin-4-yl}-pyrido[3,4-d]pyrimidin-4-yl)-(R)-pyrrolidin-3-yl-amine] | < 100 nM |
| FC(F)(F)CNc1cc(-c2nc(N3CCNCC3)c3c(C4CC4)cncc3n2)ccn1 [Example 532, [4-(5-Cyclopropyl-4-piperazin-1-yl-pyrido[3,4-d]pyrimidin-2-yl)-pyridin-2-yl]-(2,2,2-trifluoro-ethyl)-amine] | < 100 nM |
| Clc1cc2c(N3CCNCC3)nc(-c3ccncc3)nc2cn1 [Example 13, 1-[6-chloro-2-(pyridin-4-yl)-pyrido[3,4-d]-pyrimidin-4-yl]piperazine] | 1000 to 10000 nM |
